# Measured values as given in ChEMBL document CHEMBL6083187, “Current status of the small molecule anti-HIV drugs in the pipeline or recently approved” (Bioorg Med Chem, 2024).
# Experiments:
# [1] = molecular target: T1, Human immunodeficiency virus type 1 integrase (Human immunodeficiency virus 1, UniProt Q7ZJM1); test: Inhibition of HIV-1 BAL integrase strand transfer activity
# [2] = molecular target: T1, Human immunodeficiency virus type 1 integrase; test: Inhibition of HIV-1 NL4-3 integrase
# [3] = Cmax in human at 20 mg, po; format: ADME; conditions: in vivo
# [4] = Half life in human at 40 mg by LC-MS/MS analysis; format: ADME; conditions: in vivo
# [5] = Half life in human at 20 mg by LC-MS/MS analysis; format: ADME; conditions: in vivo
# [6] = Tmax in human at 40 mg, po; format: ADME; conditions: in vivo
# [7] = Cmax in human at 40 mg, po; format: ADME; conditions: in vivo
# [8] = Tmax in human at 20 mg, po; format: ADME; conditions: in vivo
# [9] = test system: Human immunodeficiency virus 1; test: Antiviral activity against HIV-1; format: functional, organism-based
# [10] = test system: Human immunodeficiency virus 1; test: Antiviral activity against HIV1 subtype A clinical isolate UG275; format: functional, organism-based; conditions: Human immunodeficiency virus 1, UG275
# [11] = test system: Human immunodeficiency virus 1; test: Antiviral activity against HIV-1 NL4-3 infected in human MT2 cells assessed as reduction in viral replication; format: functional, organism-based; conditions: Human immunodeficiency virus 1, NL4-3, MT2
# [12] = test system: Human immunodeficiency virus 2; test: Antiviral activity against HIV-2 ROD infected in human MT4 cells assessed as virus-induced cytopathic effect incubated for 5 days by MTT assay; format: functional, organism-based; conditions: Human immunodeficiency virus 2, ROD, MT4, 120 h
# [13] = molecular target: Structural capsid protein (Human immunodeficiency virus 1, UniProt Q76129); test: Inhibition of HIV-1 NL4-3 monomeric capsid protein
# [14] = molecular target: Human immunodeficiency virus type 1 protease (Human immunodeficiency virus 1, UniProt Q72874); test: Inhibition of HIV-1 protease by fluorescence resonance energy transfer analysis
# [15] = molecular target: T1, Human immunodeficiency virus type 1 integrase; test: Inhibition of HIV-1 integrase strand transfer activity
# [16] = molecular target: T2, Human immunodeficiency virus type 1 reverse transcriptase (Human immunodeficiency virus 1, UniProt Q72547); test: Inhibition of HIV-1 reverse transcriptase
# [17] = Inhibition of Influenza A virus RdRp
# [18] = molecular target: T2, Human immunodeficiency virus type 1 reverse transcriptase; test: Inhibition of wild type HIV-1 reverse transcriptase
# [19] = molecular target: T2, Human immunodeficiency virus type 1 reverse transcriptase; test: Inhibition of HIV-1 NL4-3 reverse transcriptase
# T1 sequence (Q7ZJM1 whole entry): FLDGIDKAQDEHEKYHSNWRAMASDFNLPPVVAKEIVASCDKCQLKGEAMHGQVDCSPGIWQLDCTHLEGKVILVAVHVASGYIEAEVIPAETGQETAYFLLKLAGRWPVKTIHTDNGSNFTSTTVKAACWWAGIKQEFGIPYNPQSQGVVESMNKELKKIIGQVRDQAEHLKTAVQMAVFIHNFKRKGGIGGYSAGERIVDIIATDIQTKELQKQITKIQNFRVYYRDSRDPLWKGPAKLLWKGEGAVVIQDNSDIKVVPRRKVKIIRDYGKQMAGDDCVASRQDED
# Sequence of Structural capsid protein (Q76129 whole entry): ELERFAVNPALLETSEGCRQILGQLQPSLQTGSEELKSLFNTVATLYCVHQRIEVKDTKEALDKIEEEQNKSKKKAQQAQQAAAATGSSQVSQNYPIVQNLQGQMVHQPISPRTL
smiles,measurement,setting,value
C[C@H]1CO[C@@H]2Cn3cc(C(=O)NCc4ccc(F)cc4F)c(=O)c(O)c3C(=O)N12 [CABOTEGRAVIR],IC50,[1],0.22 nM
same,IC50,[2],0.34 nM
CCC(=O)NS(=O)(=O)c1ccc(NC(=O)Cc2ccc(Br)c(Oc3cc(Cl)cc(C#N)c3)c2F)c(Cl)c1 [ELSULFAVIRINE],Cmax,[3],7.5 ng/mL
same,half-life,[4],2.6 h
same,half-life,[5],1.7 h
same,Tmax,[6],1.9 h
same,Cmax,[7],10.8 ng/mL
same,Tmax,[8],1.1 h
C=C(C)[C@@H]1CC[C@]2(NCCN3CCS(=O)(=O)CC3)CC[C@]3(C)[C@H](CC[C@@H]4[C@@]5(C)CC=C(C6=CC[C@@](CF)(C(=O)O)CC6)C(C)(C)[C@@H]5CC[C@]43C)[C@@H]12 [FIPRAVIRIMAT],EC50,[9],9 nM
same,EC50,[10],3.5 nM
C#C[C@]1(CO)C=C[C@@H](n2cc(C)c(=O)[nH]c2=O)O1,EC50,[11],450 nM
same,EC50,[12],30 nM
C=C(C)[C@@H]1CC[C@]2(NCCN3CCS(=O)(=O)CC3)CC[C@]3(C)[C@H](CC[C@@H]4[C@@]5(C)CC=C(c6ccc(C(=O)O)cc6)C(C)(C)[C@@H]5CC[C@]43C)[C@@H]12 [BMS-955176],IC50,[13],> 50000 nM
same,IC50,[14],> 10000 nM
same,IC50,[15],> 15000 nM
same,IC50,[16],> 50000 nM
same,IC50,[17],> 100000 nM
Cc1cc(/C=C/C#N)cc(C)c1Nc1ccnc(Nc2ccc(C#N)cc2)n1 [RILPIVIRINE],IC50,[18],0.24 nM
same,IC50,[19],< 2 nM
